This is an account of results in PubChem BioAssay (NCI).

Values joined by “and” are separate entries in the source; they are usually repeats but may differ in a detail not shown here. Identical values can stand only once.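 Five concentrations, 48 hours, 96-well plates. GI50 marks 50% less growth. TGI marks complete inhibition of growth.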 Bounds are passed on as bounds.

The first assay relates to K-562 leukemia. The assay is described as follows: NCI anticancer screen, dose series, 48 h.
As for `CCc1c(C)[nH]c(/C=C2\N=C(c3ccc[nH]3)C=C2OC)c1C`, the GI50 is 0.805 µM and the TGI worked out at 8.97 µM.

The test system of another assay is MCF7 breast. The experiment in a line: NCI anticancer screen, dose series, 48 h.
For the compound `c1ccc2[nH]c(-c3ccc(N4CCN(c5ccc(-c6nc7ccccc7[nH]6)cc5)CC4)cc3)nc2c1`, the GI50 was 34.5 µM and the TGI was over 100 µM.
Taken in the same sequence, the figures for `CCN(CC)CCOc1ccc(C(=C(C)c2ccc(Cl)cc2)c2ccc(OCCN(CC)CC)cc2)cc1` were 0.445 µM and 0.966 µM.
The matching figures for `C[C@]12CC[C@H]3[C@@H](CCC4=CC(=O)CC[C@@H]43)[C@@H]1CC[C@@H]2OC(=O)N(CCCl)N=O`: 7.07 µM and 29.8 µM.
As for `CC12CCC(=O)C=C1CCC1C2CCC2(C)C(C(=O)Cn3cnc4c(=S)nc[nH]c43)CCC12` (centres undefined), the TGI was determined as 36.7 µM.
Still for that read-out and setting: in the case of `CCc1ccc(NCc2cc(OC)c(OC)c(OC)c2)cc1` it was 24.8 µM; in that of `Cn1c(=O)c2[nH]c(/N=N/N3CCN(CCO)CC3)nc2n(C)c1=O`, over 100 µM.
Take `c1ccc2nc(Cn3c[n+](Cc4ccc5ccccc5n4)c4ccccc43)ccc2c1`: the GI50 was 1.91 µM and the TGI was determined as 11.5 µM.
`O=C(O)CS(=O)(=O)C(c1ccccc1)c1ccccc1`: the TGI was over 100 µM.
On to `C=C(C)[C@@H]1CC[C@]2(C(=O)NCCCN)CC[C@]3(C)[C@H](CC[C@@H]4[C@@]5(C)CC[C@H](O)C(C)(C)[C@@H]5CC[C@]43C)[C@@H]12`, for which the GI50 is 10.7 µM and the TGI stood at 95.8 µM.
With `O=C(Nc1cccc(Cl)c1)Nc1ncc(CCNc2ncnc3ccsc23)s1`, the GI50 is 1.17 µM and 1.31 µM; the TGI is 15 µM and > 10 µM.
Consider `CCOC(=O)Cc1c[nH]c(=S)[nH]c1=O`, for which the GI50 is over 100 µM and the TGI is over 100 µM.
As for `CCc1c(C)[nH]c(/C=C2\N=C(c3ccc[nH]3)C=C2OC)c1C`, the GI50 is 0.4 µM and the TGI is 6.93 µM.

The next assay relates to NCI-H226 lung. The experiment in a line: NCI anticancer screen, dose series, 48 h.
For `c1ccc2[nH]c(-c3ccc(N4CCN(c5ccc(-c6nc7ccccc7[nH]6)cc5)CC4)cc3)nc2c1`, the GI50 is 24.2 µM and the TGI was over 100 µM.
The matching figures for `CCN(CC)CCOc1ccc(C(=C(C)c2ccc(Cl)cc2)c2ccc(OCCN(CC)CC)cc2)cc1`: 2.54 µM and 7.32 µM.
As to `C[C@]12CC[C@H]3[C@@H](CCC4=CC(=O)CC[C@@H]43)[C@@H]1CC[C@@H]2OC(=O)N(CCCl)N=O`, the GI50 was 14 µM and the TGI was found to be 34.1 µM.
`CC12CCC(=O)C=C1CCC1C2CCC2(C)C(C(=O)Cn3cnc4c(=S)nc[nH]c43)CCC12` (centres undefined) displayed a TGI of over 100 µM.
The same measure, in the same setting: the value for `CCc1ccc(NCc2cc(OC)c(OC)c(OC)c2)cc1` was over 85 µM.
Same read-out and setting: the value for `Cn1c(=O)c2[nH]c(/N=N/N3CCN(CCO)CC3)nc2n(C)c1=O` was over 100 µM.
On to `c1ccc2nc(Cn3c[n+](Cc4ccc5ccccc5n4)c4ccccc43)ccc2c1`, for which the GI50 was 4.13 µM and the TGI came out at 20.4 µM.
For `O=C(O)CS(=O)(=O)C(c1ccccc1)c1ccccc1`, the TGI is over 100 µM.
Turning to `C=C(C)[C@@H]1CC[C@]2(C(=O)NCCCN)CC[C@]3(C)[C@H](CC[C@@H]4[C@@]5(C)CC[C@H](O)C(C)(C)[C@@H]5CC[C@]43C)[C@@H]12`, the GI50 was 21.2 µM and the TGI was over 100 µM.
With `O=C(Nc1cccc(Cl)c1)Nc1ncc(CCNc2ncnc3ccsc23)s1`, the GI50 was 1.86 µM and 2.06 µM; the TGI is 8.98 µM and > 10 µM.
Take `CCOC(=O)Cc1c[nH]c(=S)[nH]c1=O`: the GI50 is over 100 µM and the TGI is over 100 µM.
`CCc1c(C)[nH]c(/C=C2\N=C(c3ccc[nH]3)C=C2OC)c1C`: the GI50 is 0.812 µM and the TGI is 8.83 µM.

The subject of another assay is PC-3 prostate. The assay is described as follows: NCI anticancer screen, dose series, 48 h.
For `c1ccc2[nH]c(-c3ccc(N4CCN(c5ccc(-c6nc7ccccc7[nH]6)cc5)CC4)cc3)nc2c1`, the GI50 was over 100 µM and the TGI was over 100 µM.
For the compound `CCN(CC)CCOc1ccc(C(=C(C)c2ccc(Cl)cc2)c2ccc(OCCN(CC)CC)cc2)cc1`, the GI50 is 0.63 µM and the TGI was 1.36 µM.
The matching figures for `C[C@]12CC[C@H]3[C@@H](CCC4=CC(=O)CC[C@@H]43)[C@@H]1CC[C@@H]2OC(=O)N(CCCl)N=O`: 5.02 µM and over 48.1 µM.
`CC12CCC(=O)C=C1CCC1C2CCC2(C)C(C(=O)Cn3cnc4c(=S)nc[nH]c43)CCC12` (centres undefined) showed a TGI of over 100 µM.
Same read-out and setting: the value for `CCc1ccc(NCc2cc(OC)c(OC)c(OC)c2)cc1` was 53 µM and 18.7 µM; that for `Cn1c(=O)c2[nH]c(/N=N/N3CCN(CCO)CC3)nc2n(C)c1=O` was over 100 µM.
Take `c1ccc2nc(Cn3c[n+](Cc4ccc5ccccc5n4)c4ccccc43)ccc2c1`: the GI50 was 2.48 µM and the TGI came to 12.2 µM.
`O=C(O)CS(=O)(=O)C(c1ccccc1)c1ccccc1` yielded a TGI of over 100 µM.
Turning to `C=C(C)[C@@H]1CC[C@]2(C(=O)NCCCN)CC[C@]3(C)[C@H](CC[C@@H]4[C@@]5(C)CC[C@H](O)C(C)(C)[C@@H]5CC[C@]43C)[C@@H]12`, the GI50 was 12.6 µM and the TGI amounted to 37.8 µM.
`O=C(Nc1cccc(Cl)c1)Nc1ncc(CCNc2ncnc3ccsc23)s1`: the GI50 was 1.05 µM and 1.92 µM; the TGI is 13.8 µM and > 10 µM.
In the case of `CCOC(=O)Cc1c[nH]c(=S)[nH]c1=O`, the GI50 was over 100 µM and the TGI was over 100 µM.
Take `CCc1c(C)[nH]c(/C=C2\N=C(c3ccc[nH]3)C=C2OC)c1C`: the GI50 is 0.153 µM and the TGI turned out to be 10.8 µM.

For another assay, the system named is SF-295 CNS. The experiment in a line: NCI anticancer screen, dose series, 48 h.
With `c1ccc2[nH]c(-c3ccc(N4CCN(c5ccc(-c6nc7ccccc7[nH]6)cc5)CC4)cc3)nc2c1`, the GI50 is over 100 µM and the TGI was over 100 µM.
As to `CCN(CC)CCOc1ccc(C(=C(C)c2ccc(Cl)cc2)c2ccc(OCCN(CC)CC)cc2)cc1`, the GI50 was 0.614 µM and the TGI is 1.19 µM.
Take `C[C@]12CC[C@H]3[C@@H](CCC4=CC(=O)CC[C@@H]43)[C@@H]1CC[C@@H]2OC(=O)N(CCCl)N=O`: the GI50 is 0.121 µM and the TGI is over 44.6 µM.
With `CC12CCC(=O)C=C1CCC1C2CCC2(C)C(C(=O)Cn3cnc4c(=S)nc[nH]c43)CCC12` (centres undefined), the TGI was 86.7 µM.
Take `CCc1ccc(NCc2cc(OC)c(OC)c(OC)c2)cc1`: the GI50 was 0.0741 µM; the TGI was 6.29 µM and 1.99 µM.
In the case of `Cn1c(=O)c2[nH]c(/N=N/N3CCN(CCO)CC3)nc2n(C)c1=O`, the TGI is over 100 µM.
Regarding `c1ccc2nc(Cn3c[n+](Cc4ccc5ccccc5n4)c4ccccc43)ccc2c1`, the GI50 was 2.69 µM and the TGI was found to be 11.9 µM.
`O=C(O)CS(=O)(=O)C(c1ccccc1)c1ccccc1` came in with a TGI of over 100 µM.
For `C=C(C)[C@@H]1CC[C@]2(C(=O)NCCCN)CC[C@]3(C)[C@H](CC[C@@H]4[C@@]5(C)CC[C@H](O)C(C)(C)[C@@H]5CC[C@]43C)[C@@H]12`, the GI50 is 22.6 µM and the TGI worked out at 67.3 µM.
Take `O=C(Nc1cccc(Cl)c1)Nc1ncc(CCNc2ncnc3ccsc23)s1`: the GI50 was 0.215 µM and 0.593 µM; the TGI is 16.9 µM and > 10 µM.
Regarding `CCOC(=O)Cc1c[nH]c(=S)[nH]c1=O`, the GI50 is over 100 µM and the TGI was over 100 µM.
For `CCc1c(C)[nH]c(/C=C2\N=C(c3ccc[nH]3)C=C2OC)c1C`, the GI50 is 0.747 µM and the TGI turned out to be 3.03 µM.

A further assay relates to TK-10 renal. The assay is described as follows: NCI anticancer screen, dose series, 48 h.
On to `c1ccc2[nH]c(-c3ccc(N4CCN(c5ccc(-c6nc7ccccc7[nH]6)cc5)CC4)cc3)nc2c1`, for which the GI50 was 37.9 µM and the TGI is over 100 µM.
Taken in the same sequence, the figures for `CCN(CC)CCOc1ccc(C(=C(C)c2ccc(Cl)cc2)c2ccc(OCCN(CC)CC)cc2)cc1` were 0.698 µM and 1.67 µM.
As to `C[C@]12CC[C@H]3[C@@H](CCC4=CC(=O)CC[C@@H]43)[C@@H]1CC[C@@H]2OC(=O)N(CCCl)N=O`, the GI50 was 11.1 µM and the TGI came to 43.8 µM.
In turn, `CC12CCC(=O)C=C1CCC1C2CCC2(C)C(C(=O)Cn3cnc4c(=S)nc[nH]c43)CCC12` (centres undefined) yielded a TGI of over 100 µM.
`CCc1ccc(NCc2cc(OC)c(OC)c(OC)c2)cc1`: the GI50 was 24.6 µM and 10.7 µM; the TGI was over 100 µM.
Compound `Cn1c(=O)c2[nH]c(/N=N/N3CCN(CCO)CC3)nc2n(C)c1=O` registered a TGI of over 100 µM.
Consider `c1ccc2nc(Cn3c[n+](Cc4ccc5ccccc5n4)c4ccccc43)ccc2c1`, for which the GI50 was 3.49 µM and the TGI turned out to be 13.3 µM.
`O=C(O)CS(=O)(=O)C(c1ccccc1)c1ccccc1` displayed a TGI of over 100 µM.
`C=C(C)[C@@H]1CC[C@]2(C(=O)NCCCN)CC[C@]3(C)[C@H](CC[C@@H]4[C@@]5(C)CC[C@H](O)C(C)(C)[C@@H]5CC[C@]43C)[C@@H]12`: the GI50 is 23.9 µM and the TGI was 60.4 µM.
As for `O=C(Nc1cccc(Cl)c1)Nc1ncc(CCNc2ncnc3ccsc23)s1`, the GI50 is 3.46 µM and 4.18 µM; the TGI is 16.1 µM and > 10 µM.
As to `CCOC(=O)Cc1c[nH]c(=S)[nH]c1=O`, the GI50 is over 100 µM and the TGI was over 100 µM.
Take `CCc1c(C)[nH]c(/C=C2\N=C(c3ccc[nH]3)C=C2OC)c1C`: the GI50 was 0.276 µM and the TGI was 8.85 µM.
